From US10730830B2, “Tetrahydronaphthalene derivative” (ONO PHARMACEUTICAL CO., LTD., priority 2016, dated 2020)
Counter-ions that a name gives are not always drawn.

Tests used:
human S1P1 (EDG-1) = human S1P1 (EDG-1) (Homo sapiens (Human), UniProt P21453); experiment: Inhibition of binding of [33P]-S1P to S1P1 (EDG-1), CHO cell membrane fractions; details: [33P]-S1P displacement, CHO membranes overexpressing human S1P1
Description: (§1) Biological Experimental Example 1: Measurement of the Inhibitory Action of the Compound of the Present Invention on Binding of [^33P]-S1P to S1P5 (EDG-8)
(§2) A reaction was carried out in a 96-well microplate by using membrane fractions of Chinese hamster ovary (CHO) cells each of which was made to overexpress human S1P1 (EDG-1) or human S1P5 gene respectively, in an amount of the membrane fraction of 1 mg protein/mL. To each of the wells, 100 μL of a vehicle (DMSO) solution or a two-fold concentration-ligand solution each of which was diluted with Binding Buffer (50 mmol/L, Tris pH 7.5, 5 mmol/L, MgCl2, 0.5% BSA and Complete EDTA free (1 tablet/50 mL)), and 50 μL of 0.16 nmol/L [^33P]-S1P (manufactured by American Radiolabeled Chemicals, Inc.) diluted with Binding Buffer were added. Thereafter, the membrane fraction solutions (50 μL) was added to the wells and the reaction was carried out at room temperature for 60 minutes. After the reaction, suction filtration was carried out by using a 96-well UNIFILTER, and the 96-well microplate was washed with Wash Buffer (50 mmol/L, Tris pH 7.5, 0.5% BSA) ([…]), and thereafter, was dried at 60° C. for 45 minutes. MicroScint (trade name) 20 (50 μL/well) was added and the plate was covered with TopSeal-A, and thereafter, the radioactivity was measured by using TopCount (manufactured by PerkinElmer Inc.).

human S1P5 (EDG-8) [1] = target: T1, human S1P5 (EDG-8) (Homo sapiens (Human), UniProt Q9H228); experiment: Inhibition of binding of [33P]-S1P to S1P5 (EDG-8), CHO cell membrane fractions; details: [33P]-S1P displacement, CHO membranes overexpressing human S1P5
Description: as §1, §2

human S1P5 (EDG-8) [2] = target: T1, human S1P5 (EDG-8); experiment: S1P5 receptor agonist activity by monitoring intracellular cyclic AMP in CHO cells overexpressing human S1P5; type: cell-based; details: cAMP, forskolin-stimulated CHO cells overexpressing human S1P5
Description: Biological Example 2: Evaluation of S1P5 Receptor Agonist Activities of the Compound of the Present Invention by Monitoring the Concentration of Produced Intracellular Cyclic AMP
CHO cells which were made to overexpress human S1P5 (EDG-8) gene were cultured in Ham's F12 Medium (manufactured by Gibco-BRL) containing 10% FBS (fetal bovine serum), penicillin/streptomycin and geneticin (0.25 mg/mL). The medium was removed from the cultured cells, the cultured cells were washed once with phosphate-buffered saline, and the cultured cells were treated with a vehicle (DMSO) solution or a compound solution each of which was diluted with Buffer (Hanks' balanced salt solution containing 20 mmol/L HEPES, 0.1 or 0.2% BSA, 1 mmol/L IBMX and 5 μmol/L forskolin) at 37° C. for 30 minutes. Thereafter, the cultured cells were washed once with phosphate-buffered saline, lysis of the cells, and the concentration of cyclic AMP in the cell lysate were measured by using cAMP Assay Kit (Cisbio Bioassays).

Sequence of human S1P1 (EDG-1) (P21453 whole entry): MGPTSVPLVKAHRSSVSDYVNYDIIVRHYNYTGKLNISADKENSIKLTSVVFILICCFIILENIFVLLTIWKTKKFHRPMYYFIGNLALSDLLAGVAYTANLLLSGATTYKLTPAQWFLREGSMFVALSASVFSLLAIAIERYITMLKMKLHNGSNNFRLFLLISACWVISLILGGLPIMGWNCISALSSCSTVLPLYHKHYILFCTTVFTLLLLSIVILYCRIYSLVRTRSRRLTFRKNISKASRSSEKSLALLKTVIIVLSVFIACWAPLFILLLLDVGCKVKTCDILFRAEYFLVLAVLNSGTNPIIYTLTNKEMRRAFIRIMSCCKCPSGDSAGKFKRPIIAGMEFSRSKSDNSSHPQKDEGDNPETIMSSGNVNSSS
T1 sequence (Q9H228 whole entry): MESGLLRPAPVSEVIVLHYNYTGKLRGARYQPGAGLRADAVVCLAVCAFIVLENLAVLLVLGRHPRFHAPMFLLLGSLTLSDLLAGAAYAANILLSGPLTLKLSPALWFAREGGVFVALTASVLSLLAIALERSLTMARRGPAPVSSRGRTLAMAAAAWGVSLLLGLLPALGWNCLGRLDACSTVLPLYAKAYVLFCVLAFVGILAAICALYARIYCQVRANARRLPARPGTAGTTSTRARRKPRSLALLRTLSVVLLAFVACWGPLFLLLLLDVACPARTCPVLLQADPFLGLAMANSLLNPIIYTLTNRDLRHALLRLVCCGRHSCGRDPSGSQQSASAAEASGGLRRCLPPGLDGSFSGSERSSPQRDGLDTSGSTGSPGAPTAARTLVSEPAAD

SMILES	IC50 (human S1P1 (EDG-1)) [nM]	IC50 (human S1P5 (EDG-8) [1]) [nM]	EC50 (human S1P5 (EDG-8) [2]) [nM]
O=C(O)C1CC(N2CCc3cccc(OCCc4cccc5ccccc45)c3CC2)C1 (single isomer, unassigned) [Example 23 (8), 3-{6-[2-(1-Naphthyl)ethoxy]-1,2,4,5-tetrahydro-3H-3-benzazepin-3-yl}cyclobutanecarboxylic Acid]	> 10000	1 to 100	–
O=C(O)C1CN(C2CCc3cccc(OCCc4cccc5ccccc45)c3C2)C1 (single isomer, unassigned; (+)) [Example 51 (2), (+)-1-{8-[2-(1-Naphthyl)ethoxy]-1,2,3,4-tetrahydro-2-naphthalenyl}-3-azetidinecarboxylic Acid]	> 10000	1 to 100	–
O=C(O)C1CN(C2CCc3cccc(OCCc4cccc5ccccc45)c3C2)C1 (single isomer, unassigned; (-)) [Example 51 (1), (−)-1-{8-[2-(1-Naphthyl)ethoxy]-1,2,3,4-tetrahydro-2-naphthalenyl}-3-azetidinecarboxylic Acid]	> 10000	1 to 100	–
O=C(O)C1CCN(C2CCc3c(cccc3OC/C=C/c3ccc(C(F)(F)F)cc3)C2)C1 (stereo not drawn) [Example 3 (1), 1-[5-({(2E)-3-[4-(Trifluoromethyl)phenyl]-2-propen-1-yl}oxy)-1,2,3,4-tetrahydro-2-naphthalenyl]-3-pyrrolidinecarboxylic Acid]	> 30000	1000 to 3000	–
CN(CCC(=O)O)C1CCc2cccc(OC/C=C/c3ccc(C(F)(F)F)cc3)c2C1 (stereo not drawn) [Example 3 (3), 3-{Methyl[8-({(2E)-3-[4-(trifluoromethyl)phenyl]-2-propen-1-yl}loxy)-1,2,3,4-tetrahydro-2-naphthalenyl]amino}propanoic Acid]	> 30000	100 to 1000	–
O=C(O)C1CN(C2CCc3cccc(OCCCc4ccccc4)c3C2)C1 (stereo not drawn) [Example 3 (4), 1-[8-(3-Phenylpropoxy)-1,2,3,4-tetrahydro-2-naphthalenyl]-3-azetidinecarboxylic Acid]	> 10000	1 to 100	–
O=C(O)C1CN(C2CCc3cccc(OCCc4cccc5ccccc45)c3C2)C1 (stereo not drawn) [Example 3 (5), 1-{8-[2-(1-Naphthyl)ethoxy]-1,2,3,4-tetrahydro-2-naphthalenyl}-3-azetidinecarboxylic Acid]	–	–	1 to 100
O=C(O)CCCN1CCc2c(cccc2OCCc2ccc3ccccc3c2)C1 [Example 18 (1), 4-{5-[2-(2-naphthyl)ethoxy]-3,4-dihydro-2(1H)-isoquinolinyl}butanoic Acid trifluoroacetate]	> 30000	1000 to 3000	–
O=C(O)CCCN1CCc2cccc(OC/C=C/c3ccc(C(F)(F)F)cc3)c2C1 [Example 18 (2), 4-[8-({(2E)-3-[4-(Trifluoromethyl)phenyl]-2-propen-1-yl}oxy)-3,4-dihydro-2(1H)-isoquinolinyl]butanoic Acid trifluoroacetate]	> 30000	1000 to 3000	–
CC(C)c1ccc(/C=C/COc2cccc3c2CCN(CCCC(=O)O)C3)cc1 [Example 18 (3), 4-[5-{[(2E)-3-(4-Isopropylphenyl)-2-propen-1-yl]oxy}-3,4-dihydro-2(1H)-isoquinolinyl]butanoic Acid]	> 30000	1000 to 3000	–
O=C(O)CCCN1CCc2c(cccc2OC/C=C/c2ccc(OC(F)F)cc2)C1 [Example 18 (4), 4-[5-({(2E)-3-[4-(Difluoromethoxy)phenyl]-2-propen-1-yl}oxy)-3,4-dihydro-2(1H)-isoquinolinyl]butanoic Acid]	> 30000	1000 to 3000	–
O=C(O)CCN1CCc2cccc(OC/C=C/c3ccc(C(F)(F)F)cc3)c2CC1 [Example 18 (8), 3-[6-({(2E)-3-[4-(Trifluoromethyl)phenyl]-2-propen-1-yl}oxy)-1,2,4,5-tetrahydro-3H-3-benzazepin-3-yl]propanoic Acid]	> 10000	100 to 1000	–
O=C(O)CCCN1CCc2cccc(OCCOc3ccc(C(F)(F)F)cc3)c2CC1 [Example 18 (10), 4-(6-{2-[4-(Trifluoromethyl)phenoxy]ethoxy}-1,2,4,5-tetrahydro-3H-3-benzazepin-3-yl)butanoic Acid]	> 10000	1 to 100	–
O=C(O)CCCN1CCc2cccc(OCCCc3ccccc3)c2CC1 [Example 18 (11), 4-[6-(3-Phenylpropoxy)-1,2,4,5-tetrahydro-3H-3-benzazepin-3-yl]butanoic Acid]	–	–	1 to 100
O=C(O)CCCN1CCc2cccc(OCCCC3CCCCC3)c2CC1 [Example 18 (14), 4-[6-(3-Cyclohexylpropoxy)-1,2,4,5-tetrahydro-3H-3-benzazepin-3-yl]butanoic Acid]	> 10000	100 to 1000	–
O=C(O)CCCN1CCc2cccc(OCC3CCc4ccccc4C3)c2CC1 (stereo not drawn) [Example 18 (16), 4-[6-(1,2,3,4-Tetrahydro-2-naphthalenylmethoxy)-1,2,4,5-tetrahydro-3H-3-benzazepin-3-yl]butanoic Acid]	> 10000	100 to 1000	–
O=C(O)CCCN1CCc2cccc(OCCc3cccc4ccccc34)c2CC1 [Example 18 (18), 4-{6-[2-(1-Naphthyl)ethoxy]-1,2,4,5-tetrahydro-3H-3-benzazepin-3-yl}butanoic Acid]	> 10000	1 to 100	1 to 100
O=C(O)CCCN1CCc2cccc(OCCc3ccccc3)c2CC1 [Example 18 (22), 4-[6-(2-Phenylethoxy)-1,2,4,5-tetrahydro-3H-3-benzazepin-3-yl]butanoic Acid]	> 10000	100 to 1000	–
O=C(O)CCCN1CCc2cccc(OCCCCCc3ccccc3)c2CC1 [Example 18 (24), 4-{6-[(5-Phenylpentyl)oxy]-1,2,4,5-tetrahydro-3H-3-benzazepin-3-yl}butanoic Acid]	> 10000	1 to 100	–
O=C(O)CCCN1CCc2cccc(OCCC3Cc4ccccc43)c2CC1 (stereo not drawn) [Example 18 (26), 4-{6-[2-(Bicyclo[4.2.0]octa-1,3,5-trien-7-yl)ethoxy]-1,2,4,5-tetrahydro-3H-3-benzazepin-3-yl}butanoic Acid]	> 10000	100 to 1000	–
CCCCCCCCOc1cccc2c1CCN(CCCC(=O)O)CC2 [Example 18 (32), 4-[6-(Octyloxy)-1,2,4,5-tetrahydro-3H-3-benzazepin-3-yl]butanoic Acid]	> 10000	100 to 1000	–
O=C(O)CCCN1CCc2cccc(OCCCC3CCOCC3)c2CC1 [Example 18 (42), 4-{6-[3-(tetrahydro-2H-pyran-4-yl)propoxy]-1,2,4,5-tetrahydro-3H-3-benzazepin-3-yl}butanoic Acid]	> 10000	100 to 1000	–
Cc1ccc2c(c1OCCCc1ccccc1)CCN(CCCC(=O)O)CC2 [Example 29, 4-[7-Methyl-6-(3-phenylpropoxy)-1,2,4,5-tetrahydro-3H-3-benzazepin-3-yl]butanoic Acid]	> 10000	1 to 100	–
O=C(O)CC1(CN2CCc3cccc(OCCc4cccc5ccccc45)c3CC2)CC1 [Example 37, [1-({6-[2-(1-Naphthyl)ethoxy]-1,2,4,5-tetrahydro-3H-3-benzazepin-3-yl}methyl)cyclopropyl]acetic Acid]	> 10000	100 to 1000	–
O=C(O)C1CN(C2Cc3cccc(OCCc4ccccc4)c3C2)C1 (stereo not drawn) [Example 48, 1-[4-(2-Phenylethoxy)-2,3-dihydro-1H-inden-2-yl]-3-azetidinecarboxylic Acid]	> 30000	100 to 1000	–
O=C(O)CCCCN1CCCc2c(cccc2OC/C=C/c2ccc(C(F)(F)F)cc2)C1 [Example 49, 5-[6-({(2E)-3-[4-(Trifluoromethyl)phenyl]-2-propen-1-yl}oxy)-1,3,4,5-tetrahydro-2H-2-benzazepin-2-yl]pentanoic Acid]	> 30000	1000 to 3000	–
